The test system of data set [1] is Sstr5 gene. The data set is described as follows: Real-time PCR, sstr5 mRNA gene expression in IMR5 cells. To be noted: AE 50µM, SST14 10µM, 5,30,60,120 min (fig.1B). The class given is cell-based, human. The method, then:
(§1) Real-time PCR analyses were carried out to quantify expression of the selected sstrs genes in IMR5, DMS114, and MRC5 cells. Total RNA was isolated using the Qiagen RNeasy Mini Kit in accordance with the manufacturer's instructions. cDNA synthesis were performed using GeneAmp® RNA PCR Core Kit (Roche, New Jersey, U.S.A.). The expression levels of sstrs mRNA were evaluated by qualitative RT-PCR using the specific primers.
(§2) Relative quantitative PCR (qPCR) was carried out in 25 µl final volume utilizing 3 µl of cDNA, 0.2 µM of each specific primers, using SYBRgreen reagents according to the manufacturer's instructions. PCR reactions comprised 40 cycles after an initial denaturation step (95°C, 10 min) according to the parameters: denaturation at 95°C, 15 sec and annealing/extension at 60°C, 1 min, in an ABI PRISM 7700 Sequence Detection system. To normalize the RNA amount of the extracted samples, real-time PCR analysis of the human GAPDH cDNA was carried out. Moreover, we optimized the method for relative quantification with sequence-specific DNA probes for sstr2 and sstr5 genes TaqMan reagents using kit TaqMan Gene Expression Assays according to the manufacturer's instructions (Applied Biosystem, Milan, Italy). The relative quantification of a target template in the samples was evaluated using the 2^-ΔΔCT method. All experiments were conducted in triplicate.
For orientation: In qPCR the cycle at which signal appears reflects the starting amount.

Data set [2] relates to sstr2 gene. The data set is described as follows: Real-time PCR, sstr2 mRNA gene expression in IMR5 cells. It is filed as cell-based, human. As to conditions: SST14 10µM, 5,30,60,120 min (fig.1B). The method, then: as §1, §2
Data set [3] relates to sstr2 gene. The data set is described as follows: Real-time PCR, sstr2 mRNA gene expression in MRC5 cells. It is filed as cell-based, human. As to conditions: AE 50µM, SST14 10µM, 5,30,60,120 min (fig.1B). The method, then:
as §1, §2

The conditions of data set [4]: state of the art statement; cited from earlier work.

“SST14: somatostatin peptide containing 14 amino acids; natural ligand of somatostatin receptors”: in data set [1], the Sstr5 gene expression result was “up-regulated”. Also, the results for the sstr2 gene expression result in data set [2] and in data set [3] were “up-regulated” and “significantly upregulated”, respectively. In addition, the plasma half-life in data set [4] is reported as below 3 min.

(Values after patent EP3878441B1, “ALOE EMODIN AND ESTER DERIVATIVES THEREOF FOR TREATING SSTR2 AND/OR SSTR5 OVEREXPRESSING CANCERS” (Pecere, Teresa, priority 2020, dated 2021).)
